What was measured:
[1] = In vitro metabolism in hepatocytes with 14C-labeled Formula (II); format: in vitro ADME, mouse, rat, dog, rabbit, monkey, and human
Text: (§1) No unique human metabolite was identified. Preliminary evaluations of metabolism in the plasma, bile, and urine of rats, dogs, and monkeys indicated metabolic processes of oxidation, glutathione binding, and hydrolysis.

[2] = Glutathione binding and depletion in vitro; format: in vitro ADME
Text: as §1

[3] = system: GPVI platelet aggregation; assay: GPVI platelet aggregation (convulxin-induced); format: cell-based, human
Experimental: GPVI platelet aggregation was measured for Formula (II) and Formula (X) (ibrutinib). Blood was obtained from untreated humans, and platelets were purified from […] by centrifugation. Cells were resuspended to a final concentration of […] in buffer containing 145 mmol/L NaCl, 10 mmol/L HEPES, 0.5 mmol/L Na2HPO4, 5 mmol/L KCl, 2 mmol/L MgCl2, 1 mmol/L CaCl2, and 0.1% glucose, at pH 7.4. Stock solutions of Convulxin (CVX) GPVI were prepared on the day of experimentation and added to platelet suspensions 5 minutes (37° C., 1200 rpm) before the induction of aggregation. Aggregation was assessed with a Chronolog Lumi-Aggregometer (model 540 VS; Chronolog, Havertown, Pa.) and permitted to proceed for 6 minutes after the addition of agonist. The results are reported as maximum percent change in light transmittance from baseline with platelet buffer used as a reference.
In FIG. 23, the results of CVX-induced (250 ng/mL) human platelet aggregation results before and 15 minutes after administration of the BTK inhibitors to 6 healthy individuals are shown.

Raji cells = assay: Rituximab ADCC chromium release assay; format: cell-based, human; settings: 1 μM
Text: Cell culture conditions were as follows. […] The HER18 cells were maintained in DEM supplemented with fetal bovine serum, penicillin-streptomycin and. Prior to assay, HER18 cells were harvested using trypsin-EDTA, washed with phosphate-buffered saline (PBS) containing 5% serum and viable cells were counted. For culture of primary target cells, peripheral blood from CLL patients was subject to density centrifugation to obtain peripheral blood mononuclear cells (PBMC). Cell preparations were washed and then subject to positive selection of CD5+CD19^+ CLL cells using magnetic beads (MACS, Miltenyi Biotech). Cell preparations were used fresh after selection. NK cells from CLL patients and healthy volunteers were enriched from peripheral blood collected in sodium citrate anti-coagulant tubes and then subject to density centrifugation. Removal of non NK cells was performed using negative selection by MACS separation. Freshly isolated NK cells were washed three times, enumerated, and then used immediately for ADCC assays.
ADCC assays were performed as follows. Briefly, target cells (Raji or primary CLL) were labeled by incubation at 37° C. with 100 μCi ^51Cr for 4 hours prior to co-culture with NK cells. Cells were washed, enumerated, and then added in triplicate to prepared 96-well plates containing treated NK cells at an effector:target (E:T) ratio of 25:1. […] The effect of NK cell natural cytotoxicity was assessed in wells containing no rituximab. Cultures were incubated at 37° C. for 4 hours, and then centrifuged. Supernatants were harvested and ^51Cr release was measured by liquid scintillation counting. All experiments were performed in triplicate.

CD8+ T cells = assay: CD8+ T cell viability; format: cell-based; settings: 4 days culture
Experimental: Total T cells were plated on anti-TCR and anti-CD28 coated wells in the presence of both BTK inhibitors. Neutral culture conditions were used that will not polarize T cells to a helper lineage. The cells are grown for 4 days and are then stained with anti-CD4, anti-CD8 and LIVE/DEAD reagent to determine if the drugs have selective effects on either the CD4^+ or CD8^+ cells. Statistical significance was calculated using the Mann Whitney T-test. […]

ID8 ovarian cancer = assay: ID8 syngeneic orthotropic ovarian cancer murine model; format: in vivo, mice; settings: 15 mg/kg/BID oral
Text: Human ovarian cancer models, including the ID8 syngeneic orthotropic ovarian cancer model and other animal models, are described in Fong and Kakar, J. Ovarian Res. 2009, 2, 12; Greenaway, et al., Gynecol. Oncol. 2008, 108, 385-94; Urzua et al., Tumour Biol. 2005, 26, 236-44; Janat-Amsbury, et al., Anticancer Res. 2006, 26, 3223-28; Janat-Amsbury, et al., Anticancer Res. 2006, 26, 2785-89. […] The results of the study are shown in FIG. 5, FIG. 6, FIG. 7, FIG. 8, FIG. 9, FIG. 10, FIG. 11, and FIG. 12.

[4] = system: orthotopic pancreatic cancer (KPC cell line); assay: Orthotopic pancreatic cancer model; format: in vivo, C57BL/6 mice; settings: 15 mg/kg oral
Experimental: Cell line derived from KrasGl2D;Trp53R172H;Pdx1-Cre (KPC) mice were orthotopically implanted into the head of the pancreas after 35 passages. Based on the mice background from where the cell lines were generated, 1×10^6 cells were injected in C57BL/6 mice. Throughout the experiment, animals were provided with food and water ad libitum and subjected to a 12-h dark/light cycle. Animal studies were performed in accordance with the U.S. Public Health Service “Guidelines for the Care and Use of Laboratory Animals” (IACUC). After euthanization, pancreatic tumors were dissected out, weighed and single cell suspensions were prepared for flow cytometry analysis.

[5] = system: KPC derived mouse pancreatic cancer cells; assay: KPC derived pancreatic cancer cells injected into pancreas, Formula (II) and/or gemcitabine; format: in vivo; settings: Formula (II) 15 mg/kg/BID oral; gemcitabine 15 mg/kg IV every 4 days for 3 injections
Experimental: In this study, KPC derived mouse pancreatic cancer cells (KrasGl2D;Trp53R^172H;Pdx1-Cre) were injected into the pancreases.
Single cell suspensions from tumor samples. Mouse tumor tissue was collected and stored in PBS/0.1% soybean trypsin inhibitor prior to enzymatic dissociation. Samples were finely minced with a scissors and mouse tissue was transferred into DMEM containing 1.0 mg/ml collagenase IV (Gibco), 0.1% soybean trypsin inhibitor, and 50 U/ml DNase (Roche) and incubated at 37 C for 30 min. with constant stirring while human tissue was digested in 2.0 mg/ml collagenase IV, 1.0 mg/ml hyluronidase, 0.1% soybean trypsin inhibitor, and 50 U/ml DNase for 45 minutes. Suspensions were filtered through a 100 micron filter and washed with FACS buffer (PBS/0.5% BSA/2.0 mM EDTA) prior to staining. Two million total cells were stained with antibodies as indicated. Intracellular detection of FoxP3 was achieved following permeabilization with BD Perm Buffer III (BD Biosciences) and eBioscience Fix/Perm respectively. Following surface staining, samples were acquired on a BD Fortessa and analyzed using FlowJo (Treestar) software.

## CC#CC(=O)N1CCC[C@H]1c1nc(-c2ccc(C(=O)Nc3ccccn3)cc2)c2c(N)nccn12 [Formula (II), (S)-4-(8-amino-3-(1-(but-2-ynoyl)pyrrolidin-2-yl)imidazo[1,5-a]pyrazin-1-yl)-N-(pyridin-2-yl)benzamide]
[1]
  metabolites in hepatocytes: two mono-oxidized metabolites and a glutathione conjugate
[2]
  glutathione binding and depletion: binds to glutathione but does not deplete glutathione
[3]; FIG. 22 and FIG. 23
  GPVI platelet aggregation: does not
[3]; Homo sapiens, Platelet, FIG. 22
  IC50: 1150 nM
Raji cells; FIG. 31
  rituximab ADCC, NK cell activity: not inhibited
Raji cells; healthy donor NK cells
  antibody-dependent lysis of rituximab-coated Raji cells: not inhibited
CD8+ T cells
  CD8+ T cell viability: not observed
ID8 ovarian cancer
  ID8 ovarian cancer growth: impairs ID8 ovarian cancer growth
  immunosuppressive B cells in tumor-bearing mice: significant reduction in immunosuppressive B cells
  tumor associated Tregs and CD8+ T cells: significant reduction in immunosuppressive tumor associated Tregs and an increase in CD8^+ T cells
[4]; pancreatic tumor-bearing mice
  immunosuppressive tumor associated myeloid cells and Tregs: reduce immunosuppressive tumor associated myeloid cells and Tregs
[4]; vs vehicle
  tumor volume: statistically significant reductions in tumor volume
[5]
  reduction in tumor size: show efficacy alone

— patent publication US20180369244A1, “BTK Inhibitors to Treat Solid Tumors Through Modulation of the Tumor Microenvironment” (Acerta Pharma B.V., priority 2014, published 2018)
